The values that follow are results of earlier work, collected in patent publication US20050272031A1, “Viral variants and uses therefor” (MELBOURNE HEALTH, priority 2000, published 2005).

For this data set, the system named is HBV.

As for `Nc1ncnc2c1ncn2CCOCP(=O)(O)O` [Adefovir], the “anti-HBV activity in vitro” value is recorded as “effective anti-HBV activity in vitro”.
